{
  "source": "PubChem BioAssay AID248",
  "about": "(DTP/NCI, 2004)",
  "system": "L1210 leukemia ip in BDF1 mice, survival T/C",
  "experiment": "NCI In Vivo Anticancer Drug Screen. Data for tumor model L1210 Leukemia (intraperitoneal) in B6D2F1 (BDF1) mice",
  "conditions": "endpoint: mean survival time, higher = longer survival",
  "outline": "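Mice bearing the transplanted tumor received compound or vehicle. Survival of the treated group was divided by that of the vehicle-treated control group to give the ratio.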",
  "note": "Where “and” joins values, the source holds several entries; their conditions need not be identical. Identical values can stand only once. Toxic doses and inconclusive results are not listed.",
  "data": [
    {"smiles": "O=c1[nH]c(=O)n([C@H]2CCCO2)cc1F", "values": [
      {"measurement": "T/C", "setting": "dose: 2.5 mg/kg/injection, schedule: Q01DX009 (ip), vehicle: saline", "value": "97 % of control"},
      {"measurement": "T/C", "setting": "dose: 5.0 mg/kg/injection, schedule: Q01DX009 (ip), vehicle: saline", "value": "98 % of control"},
      {"measurement": "T/C", "setting": "dose: 5.0 mg/kg/injection, schedule: Q01DX009 (oral), vehicle: saline", "value": "102 % of control"},
      {"measurement": "T/C", "setting": "dose: 10.0 mg/kg/injection, schedule: Q01DX009 (ip), vehicle: saline", "value": "100 % of control"},
      {"measurement": "T/C", "setting": "dose: 10.0 mg/kg/injection, schedule: Q01DX009 (oral), vehicle: saline", "value": "103 % of control"},
      {"measurement": "T/C", "setting": "dose: 20.0 mg/kg/injection, schedule: Q01DX009 (ip), vehicle: saline", "value": "103 % of control"},
      {"measurement": "T/C", "setting": "dose: 20.0 mg/kg/injection, schedule: Q01DX009 (oral), vehicle: saline", "value": "112 % of control"},
      {"measurement": "T/C", "setting": "dose: 38.9 mg/kg/injection, schedule: Q01DX009 (ip), vehicle: saline", "value": "97 % of control"},
      {"measurement": "T/C", "setting": "dose: 39.0 mg/kg/injection, schedule: Q01DX009 (ip), vehicle: Klucel (hydroxypropylcellulose) (HPC)", "value": "111 % of control"},
      {"measurement": "T/C", "setting": "dose: 40.0 mg/kg/injection, schedule: Q01DX009 (ip), vehicle: saline", "value": "101 % of control"},
      {"measurement": "T/C", "setting": "dose: 40.0 mg/kg/injection, schedule: Q01DX009 (oral), vehicle: saline", "value": "107 % of control"},
      {"measurement": "T/C", "setting": "dose: 64.8 mg/kg/injection, schedule: Q01DX009 (ip), vehicle: saline", "value": "107 % of control"},
      {"measurement": "T/C", "setting": "dose: 65.0 mg/kg/injection, schedule: Q01DX009 (ip), vehicle: Klucel (hydroxypropylcellulose) (HPC)", "value": "123 % of control"},
      {"measurement": "T/C", "setting": "dose: 75.0 mg/kg/injection, schedule: Q04DX003 (ip), vehicle: other", "value": "95 % of control"},
      {"measurement": "T/C", "setting": "dose: 80.0 mg/kg/injection, schedule: Q01DX009 (ip), vehicle: saline", "value": "114 % of control"},
      {"measurement": "T/C", "setting": "dose: 80.0 mg/kg/injection, schedule: Q01DX009 (oral), vehicle: saline", "value": "118 % of control"},
      {"measurement": "T/C", "setting": "dose: 105.0 mg/kg/injection, schedule: Q01DX012 (sc), vehicle: clinical formulation", "value": "159 % of control"},
      {"measurement": "T/C", "setting": "dose: 108.0 mg/kg/injection, schedule: Q01DX009 (ip), vehicle: Klucel (hydroxypropylcellulose) (HPC)", "value": "159 % of control"},
      {"measurement": "T/C", "setting": "dose: 108.0 mg/kg/injection, schedule: Q04DX003 (ip), vehicle: Klucel (hydroxypropylcellulose) (HPC)", "value": "113 % of control"},
      {"measurement": "T/C", "setting": "dose: 150.0 mg/kg/injection, schedule: Q04DX003 (ip), vehicle: other", "value": "111 % of control"},
      {"measurement": "T/C", "setting": "dose: 160.0 mg/kg/injection, schedule: Q01DX009 (ip), vehicle: saline", "value": "150 % of control"},
      {"measurement": "T/C", "setting": "dose: 160.0 mg/kg/injection, schedule: Q01DX009 (oral), vehicle: saline", "value": "113 % of control"},
      {"measurement": "T/C", "setting": "dose: 164.0 mg/kg/injection, schedule: Q01DX005 (sc), vehicle: clinical formulation", "value": "159 % of control"},
      {"measurement": "T/C", "setting": "dose: 164.0 mg/kg/injection, schedule: Q01DX012 (sc), vehicle: clinical formulation", "value": "121 % of control"},
      {"measurement": "T/C", "setting": "dose: 168.0 mg/kg/injection, schedule: Q01DX001 (ip), vehicle: other", "value": "99 % of control and 107 % of control"},
      {"measurement": "T/C", "setting": "dose: 168.0 mg/kg/injection, schedule: Q01DX001 (sc), vehicle: other", "value": "107 % of control and 116 % of control"},
      {"measurement": "T/C", "setting": "dose: 205.0 mg/kg/injection, schedule: Q01DX005 (sc), vehicle: clinical formulation", "value": "97 % of control"},
      {"measurement": "T/C", "setting": "dose: 205.0 mg/kg/injection, schedule: Q01DX012 (sc), vehicle: clinical formulation", "value": "106 % of control"},
      {"measurement": "T/C", "setting": "dose: 240.0 mg/kg/injection, schedule: Q01DX001 (ip), vehicle: other", "value": "116 % of control and 121 % of control"},
      {"measurement": "T/C", "setting": "dose: 240.0 mg/kg/injection, schedule: Q01DX001 (sc), vehicle: other", "value": "112 % of control and 117 % of control"},
      {"measurement": "T/C", "setting": "dose: 256.0 mg/kg/injection, schedule: Q01DX002 (sc), vehicle: clinical formulation", "value": "111 % of control"},
      {"measurement": "T/C", "setting": "dose: 256.0 mg/kg/injection, schedule: Q01DX005 (sc), vehicle: clinical formulation", "value": "102 % of control"},
      {"measurement": "T/C", "setting": "dose: 300.0 mg/kg/injection, schedule: Q01DX001 (ip), vehicle: Klucel (hydroxypropylcellulose) (HPC)", "value": "98 % of control"},
      {"measurement": "T/C", "setting": "dose: 300.0 mg/kg/injection, schedule: Q01DX009 (ip), vehicle: Klucel (hydroxypropylcellulose) (HPC)", "value": "114 % of control"},
      {"measurement": "T/C", "setting": "dose: 300.0 mg/kg/injection, schedule: Q01DX009 (ip), vehicle: saline", "value": "102 % of control"},
      {"measurement": "T/C", "setting": "dose: 300.0 mg/kg/injection, schedule: Q04DX003 (ip), vehicle: Klucel (hydroxypropylcellulose) (HPC)", "value": "152 % of control"},
      {"measurement": "T/C", "setting": "dose: 300.0 mg/kg/injection, schedule: Q04DX003 (ip), vehicle: other", "value": "161 % of control"},
      {"measurement": "T/C", "setting": "dose: 320.0 mg/kg/injection, schedule: Q01DX009 (ip), vehicle: saline", "value": "160 % of control"},
      {"measurement": "T/C", "setting": "dose: 320.0 mg/kg/injection, schedule: Q01DX009 (oral), vehicle: saline", "value": "98 % of control"},
      {"measurement": "T/C", "setting": "dose: 363.0 mg/kg/injection, schedule: Q01DX001 (ip), vehicle: other", "value": "121 % of control"},
      {"measurement": "T/C", "setting": "dose: 400.0 mg/kg/injection, schedule: Q01DX001 (sc), vehicle: clinical formulation", "value": "121 % of control"},
      {"measurement": "T/C", "setting": "dose: 490.0 mg/kg/injection, schedule: Q01DX001 (ip), vehicle: other", "value": "121 % of control"},
      {"measurement": "T/C", "setting": "dose: 500.0 mg/kg/injection, schedule: Q01DX001 (ip), vehicle: Klucel (hydroxypropylcellulose) (HPC)", "value": "117 % of control"},
      {"measurement": "T/C", "setting": "dose: 500.0 mg/kg/injection, schedule: Q01DX001 (sc), vehicle: clinical formulation", "value": "123 % of control"},
      {"measurement": "T/C", "setting": "dose: 500.0 mg/kg/injection, schedule: Q01DX002 (sc), vehicle: clinical formulation", "value": "110 % of control"}
    ]}
  ]
}
